ChEMBL document CHEMBL1201862, “PubChem BioAssay data set” (2004)
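In this assay, cells in 96-well plates receive the compound at five concentrations for 48 hours. Endpoints are linearly interpolated between the surrounding concentrations. GI50: concentration for 50% inhibition of growth.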 Activity calls are given as the source filed them. No stated cut-off is given here; in the data, active = GI50 up to about 1.1 µM and inactive = higher.

Key:
Assay in all cases: growth of human tumour cells (NCI), 48 h
[1] = test system: SNB-19
[2] = test system: Malme-3M
[3] = test system: SF-268
[4] = test system: SK-MEL-2
[5] = test system: NCI-H23
[6] = test system: HT-29
[7] = test system: HOP-92
[8] = test system: SN12C
[9] = test system: 786-0
[10] = test system: U-251
[11] = test system: NCI-H460
[12] = test system: HOP-18
[13] = test system: ACHN
[14] = test system: XF498
[15] = test system: RPMI-8226
[16] = test system: NCI-H522
[17] = test system: SNB-78
[18] = test system: HCT-15
[19] = test system: HL-60
[20] = test system: TK-10
[21] = test system: COLO 205
[22] = test system: SF-295
[23] = test system: NCI-H226
[24] = test system: SNB-75
[25] = test system: SF-539
[26] = test system: EKVX
[27] = test system: IGROV-1
[28] = test system: HCC 2998
[29] = test system: OVCAR-5
[30] = test system: M19-MEL
[31] = test system: SK-MEL-28
[32] = test system: SK-MEL-5
[33] = test system: HCT-116
[34] = test system: OVCAR-8
[35] = test system: UO-31
[36] = test system: RXF 393
[37] = test system: KM-20L2
[38] = test system: OVCAR-4
[39] = test system: UACC-62
[40] = test system: A498
[41] = test system: KM12
[42] = test system: LXFL 529
[43] = test system: UACC-257
[44] = test system: OVCAR-3
[45] = test system: SK-OV-3
[46] = test system: LOX IMVI
[47] = test system: M14
[48] = test system: DLD-1
[49] = test system: HOP-62
[50] = test system: A549
[51] = test system: DMS-114
[52] = test system: CCRF-CEM
[53] = test system: SW-620
[54] = test system: K562
[55] = test system: MOLT-4
[56] = test system: CAKI-1
[57] = test system: DMS-273

With `CCCc1nn(C)c(CCC(=O)N(Cc2ccccc2)Cc2ccccc2)c1CC` the GI50 [1] was > 100 µM (inactive), the GI50 [2] was > 100 µM (inactive) and the GI50 [3] was > 100 µM (inactive). For the same compound, the GI50 [4] was > 100 µM (inactive), the GI50 [5] was > 100 µM (inactive) and the GI50 [6] was > 100 µM (inactive). The GI50 [7] was > 100 µM (inactive), the GI50 [8] was > 100 µM (inactive) and the GI50 [9] was > 100 µM (inactive). For the same compound, the GI50 [10] was > 100 µM (inactive), the GI50 [11] was > 100 µM (inactive) and the GI50 [12] was > 100 µM (inactive). For the same compound, the GI50 [13] was > 100 µM (inactive), the GI50 [14] was > 100 µM (inactive) and the GI50 [15] was > 100 µM (inactive). The GI50 [16] was > 100 µM (inactive), the GI50 [17] was > 100 µM (inactive) and the GI50 [18] was > 100 µM. For the same compound, the GI50 [19] was > 100 µM (inactive), the GI50 [20] was > 100 µM (inactive) and the GI50 [21] was > 100 µM (inactive). The GI50 [22] was > 100 µM (inactive), the GI50 [23] was > 100 µM (inactive) and the GI50 [24] was 47 µM (inactive). The GI50 [25] was > 100 µM (inactive), the GI50 [26] was > 100 µM (inactive) and the GI50 [27] was > 100 µM (inactive). For the same compound, the GI50 [28] was > 100 µM (inactive), the GI50 [29] was > 100 µM (inactive) and the GI50 [30] was > 100 µM (inactive). The GI50 [31] was > 100 µM (inactive), the GI50 [32] was > 100 µM (inactive) and the GI50 [33] was > 100 µM (inactive). For the same compound, the GI50 [34] was > 100 µM (inactive), the GI50 [35] was > 100 µM (inactive) and the GI50 [36] was > 100 µM (inactive). The GI50 [37] was > 100 µM (inactive), the GI50 [38] was > 100 µM (inactive) and the GI50 [39] was > 100 µM (inactive). For the same compound, the GI50 [40] was > 100 µM (inactive), the GI50 [41] was > 100 µM (inactive) and the GI50 [42] was > 100 µM (inactive). The GI50 [43] was > 100 µM (inactive), the GI50 [44] was > 100 µM (inactive) and the GI50 [45] was > 100 µM (inactive). The GI50 [46] was > 100 µM (inactive), the GI50 [47] was > 100 µM (inactive) and the GI50 [48] was > 100 µM (inactive). For the same compound, the GI50 [49] was > 100 µM (inactive), the GI50 [50] was > 100 µM (inactive) and the GI50 [51] was > 100 µM (inactive). For the same compound, the GI50 [52] was > 100 µM (inactive) and the GI50 [53] was > 100 µM (inactive).

In the case of `O=C(O)Cc1cc(=O)oc2cc(O)c(Cl)cc12`, the GI50 [1] is reported as > 100 µM (inactive), the GI50 [2] is reported as > 100 µM (inactive) and the GI50 [54] is reported as > 100 µM (inactive). For the same compound, the GI50 [3] was > 100 µM (inactive), the GI50 [4] was > 100 µM (inactive) and the GI50 [5] was > 100 µM (inactive). The GI50 [6] was > 100 µM (inactive), the GI50 [7] was > 100 µM (inactive) and the GI50 [8] was > 100 µM (inactive). The GI50 [9] was > 100 µM (inactive), the GI50 [10] was > 100 µM (inactive) and the GI50 [11] was > 100 µM (inactive). For the same compound, the GI50 [12] was > 100 µM (inactive), the GI50 [13] was > 100 µM (inactive) and the GI50 [14] was > 100 µM (inactive). For the same compound, the GI50 [15] was > 100 µM (inactive), the GI50 [16] was > 100 µM (inactive) and the GI50 [18] was > 100 µM. For the same compound, the GI50 [19] was > 100 µM (inactive), the GI50 [20] was > 100 µM (inactive) and the GI50 [21] was > 100 µM (inactive). For the same compound, the GI50 [22] was > 100 µM (inactive), the GI50 [23] was > 100 µM (inactive) and the GI50 [24] was 28.6 µM (inactive). The GI50 [25] was > 100 µM (inactive), the GI50 [26] was > 100 µM (inactive) and the GI50 [27] was > 100 µM (inactive). For the same compound, the GI50 [28] was > 100 µM (inactive), the GI50 [55] was > 100 µM (inactive) and the GI50 [29] was > 100 µM (inactive). The GI50 [30] was > 100 µM (inactive), the GI50 [31] was > 100 µM (inactive) and the GI50 [32] was > 100 µM (inactive). For the same compound, the GI50 [33] was > 100 µM (inactive), the GI50 [34] was > 100 µM (inactive) and the GI50 [37] was > 100 µM (inactive). The GI50 [56] was > 100 µM (inactive), the GI50 [38] was > 100 µM (inactive) and the GI50 [39] was > 100 µM (inactive). The GI50 [57] was > 100 µM (inactive), the GI50 [40] was > 100 µM (inactive) and the GI50 [41] was > 100 µM (inactive). For the same compound, the GI50 [42] was > 100 µM (inactive), the GI50 [44] was > 100 µM (inactive) and the GI50 [45] was > 100 µM (inactive). The GI50 [46] was > 100 µM (inactive), the GI50 [47] was > 100 µM (inactive) and the GI50 [48] was > 100 µM (inactive). For the same compound, the GI50 [49] was > 100 µM (inactive), the GI50 [50] was > 100 µM (inactive) and the GI50 [51] was > 100 µM (inactive). For the same compound, the GI50 [52] was > 100 µM (inactive) and the GI50 [53] was > 100 µM (inactive).

`COc1ccc(-c2cc(=O)c3c(O)cc(O)cc3o2)c(OC)c1OC` was tested, and the GI50 [1] was > 100 µM (inactive), the GI50 [2] was > 100 µM (inactive) and the GI50 [54] was 42.7 µM (inactive). For the same compound, the GI50 [3] was 85.3 µM (inactive), the GI50 [4] was > 100 µM (inactive) and the GI50 [5] was > 100 µM (inactive). The GI50 [6] was 80 µM (inactive), the GI50 [7] was 72.6 µM (inactive) and the GI50 [8] was > 100 µM (inactive). For the same compound, the GI50 [9] was 80 µM (inactive), the GI50 [13] was > 10 µM (inactive) and the GI50 [14] was 63 µM (inactive). The GI50 [15] was 17.6 µM (inactive), the GI50 [16] was 52.1 µM (inactive) and the GI50 [19] was 10.1 µM (inactive). For the same compound, the GI50 [20] was > 100 µM (inactive), the GI50 [21] was 57.7 µM (inactive) and the GI50 [22] was 87.5 µM (inactive). The GI50 [23] was > 100 µM (inactive), the GI50 [24] was 38.3 µM (inactive) and the GI50 [25] was > 100 µM (inactive). For the same compound, the GI50 [26] was > 100 µM (inactive), the GI50 [27] was > 100 µM (inactive) and the GI50 [28] was 92 µM (inactive). For the same compound, the GI50 [29] was 92.3 µM (inactive), the GI50 [30] was 63 µM (inactive) and the GI50 [31] was 94.2 µM (inactive). For the same compound, the GI50 [36] was 48.8 µM (inactive), the GI50 [37] was 30.1 µM (inactive) and the GI50 [56] was 60.8 µM (inactive). The GI50 [38] was 62.8 µM (inactive), the GI50 [39] was 97.1 µM (inactive) and the GI50 [41] was 53.1 µM (inactive). For the same compound, the GI50 [42] was 49.3 µM (inactive), the GI50 [43] was > 100 µM (inactive) and the GI50 [44] was 38.9 µM (inactive). The GI50 [45] was > 100 µM (inactive), the GI50 [46] was 70.1 µM (inactive) and the GI50 [47] was > 100 µM (inactive). For the same compound, the GI50 [48] was 81.3 µM (inactive), the GI50 [49] was > 100 µM (inactive) and the GI50 [50] was 59.3 µM (inactive). For the same compound, the GI50 [51] was 50.1 µM (inactive), the GI50 [52] was 50 µM (inactive) and the GI50 [53] was 71.1 µM (inactive).
